In US20200299612A1, “HIGH PERFORMING, HIGH IMPACT BLOOM ACCORD” (International Flavors & Fragrances Inc., priority 2016, published 2020):

How the values were obtained:
Experiment in all cases: Antibacterial activity
e. coli = system: e. coli
Text: (§1) The fragrance accords can contain antibacterial ingredients described above. See U.S. Pat. No. 6,495,512 for a list of suitable antibacterial ingredients.

s. aureos = system: s. aureos
Text: as §1

e. hirae = system: e. hirae
Text: as §1

Measured: antibacterial activity

C=CC(C)(O)CCC=C(C)C (stereo not drawn) [3,7-dimethylocta-1,6-dien-3-ol]
high antibacterial activity: all assays above

COc1ccc(C)cc1 [1-methoxy-4-methylbenzene]
high antibacterial activity: all assays above
